These results are taken from patent publication US5187086A, “Molecules with antibody combining sites that catalyze hydrolysis reactions through use of a charged hapten” (Scripps Clinic and Research Foundation, priority 1991, dated 1993).

Each structure is given as a SMILES string.

Holding throughout (format): biochemical, mouse (129G1X)
The subject of test [1] is monoclonal receptor (antibody) 27A6 (hybridoma 27A6, ATCC HB 10621), IgG induced by hapten Compound 5a. In words: Chemical modification of antibody 27A6, then assay of catalytic (esterolytic) activity by HPLC. Here is the method: The esterolytic activity of monoclonal receptor 27A6 was unaffected by treatment with diethyl pyrocarbonate or maleic anhydride in fifty-fold molar excess to protein.
(a) Phenylglyoxal; a 50 μl aliquot of a phenylglyoxal solution (6 mM), (125 mM NaHCO3, pH 7.5) was added to buffer 195 μl (125 mM, pH 7.5 NaHCO3), containing antibody (20 μM). The mixture was vortexed and left to stand for one hour at room temperature. This reaction mixture was then transferred to a microdialyzer (Pierce) and dialyzed with 125 mM, pH 7.5 NaHCO3 with a flow through of approximately 150 ml/hour for two hours. The microdialyzer was then flushed with 4×60 ml portions of pH 8.4, 50 mM CHES, 100 mM NaCl and left to stand in this buffer overnight (about 15-18 hours). The microdialyzer was again flushed 3×50 ml portions of pH 8.4, 50 mM CHES, 100 mM NaCl the next morning. Samples were removed, protein concentrations recalculated (BCA) and assays run for catalytic activity (HPLC) or binding (ELISA). A similar procedure was used with hapten present (200 μM).
(b) Maleic anhydride; a […] aliquot of a maleic anhydride solution (0.06 M, dioxane) was added to 299 μl of 20 mM, pH 8.9 borate, 100 mM NaCl containing 20 μM of antibody. The solution was vortexed and left to stand at room temperature for one hour. This reaction mixture was then transferred to a microdialyzer and dialyzed as described above with 50 mM CHES, pH 8.4, 100 mM NaCl. Samples were removed, protein concentrations calculated (BCA), and assays run for catalytic activity or binding.
(c) Diethyl pyrocarbonate; 10 μl of a 0.6 M diethylpyrocarbonate solution in ethanol was diluted into 1 ml of sodium acetate (NaOAc) (150 mM, pH 6, 100 mM NaCl). Five microliters of that solution were added to 299 μl of NaOAc (150 mM, pH 6.0, 100 mM NaCl) containing 20 µM of antibody. The mixture was vortexed and left to stand at 4° degrees C. overnight (about 15-18 hours). This reaction mixture was then transferred to a microdialyzer and dialyzed as described above with CHES (50 mM, pH 8.4, 100 mM NaCl). Samples were removed, protein concentrations determined (BCA) and assays performed for catalytic activity and binding.

Test [2] relates to the three catalytic monoclonal antibodies obtained to hapten Compound 5a. In words: HPLC screen of hydrolysis of Compound 3 by catalytic antibodies, inhibition by free hapten. The settings on record: 50 μM inhibitor; antibody 20 μM, Compound 3 500 μM, phosphate 50 mM, pH 7.5, 100 mM NaCl, 37 degrees C. Here is the method: Antibodies at a concentration of 20μM were initially screened (phosphate buffer, 50 mM, pH 7.5, 100 mM NaCl, 37° degrees C.) via an HPLC assay against benzoate ester Compound 3, (500 μM) for the production of 5-[(4-hydroxyphenyl)aming]-5-oxopentanoic acid, Compound 4.

In test [3] the target is monoclonal receptor (antibody) 27A6 (hybridoma 27A6, ATCC HB 10621), IgG induced by hapten Compound 5a. In words: Hydrolysis of benzoate ester Compound 3 catalyzed by monoclonal receptor 27A6 (HPLC assay, Michaelis-Menten kinetics). Here is the method:
That monoclonal receptor is also referred to as receptor or antibody 27A6.
Purified monoclonal antibodies were dialyzed against EPPS buffer (I mM, pH 8.0, 100 mM NaCl) or CHES buffer (1 mM, pH 8.0, 100 mM NaCl). Its protein concentration was determined by the BCA method (Pierce). Assays were performed by HPLC (reverse-phase column, C18, VYDAC 201Tp54) with C3 CN/H2 O (0.1 percent TFA) on an isocratic program of 10/90. An internal standard of o-acetamidophenol was used to calculate the amount of product formed [4-(carboxybutyramido)phenol].
Reactions contained 5 percent cosolvent dioxane, and the temperature was maintained at 37°±0.1°degrees C. Initial linear rates were measured at<5 percent hydrolysis of the total substrate. […] Kinetic parameters Vmax Km were determined by nonlinear least-squares fitting of the initial rate vs. substrate concentration to a hyperbolic curve described by the Michaelis-Menten equation.

The subject of test [4] is monoclonal antibody 30C6 (hybridoma 30C6, ATCC HB 10341), IgG induced by haptenic ligand Compound 1a. In words: Hydrolysis of benzoate ester Compound 3 catalyzed by monoclonal antibody 30C6 (HPLC assay, Michaelis-Menten kinetics). As to the method:
Monoclonal antibodies at a concentration of 20 μM were initially screened (phosphate buffer 50 mM, pH 7.5, 100 mM NaCl, 37° degrees C.) against benzoate ester reactant ligand Compound 3, ([…]) for the production of 5-[[4-(hydroxy)phenyl]aming]-5-oxo-pentanoic acid, Compound 4. [Analysis was performed via HPLC on an RP-C18 column eluting with water: acetonitrile (op:10) at a flow of 1 ml/min with UV detector set to 254 nm. The hydrolysis product, Compound 4 (FIG. 1; retention time 7 minutes) was collected (recovered) an found to be identical by RP-HPLC coinjection and mass spectral analysis with an authentic sample.]
The pH dependence of the hydrolysis of substrate Compound 3 was examined in the presence of monoclonal antibodies 30C6 (20 μM) between pH 6.0 and 7.2 (Bis-tris) and 7.2-8.0 (phosphate), both at 50 mM buffer and 100 mM NaCl, 37° degrees C. (FIG. 2).

The mark [5] stands for this setting: treatment with reagent in fifty-fold molar excess to protein.
The mark [6] stands for this setting: hydrolysis of Compound 3, 50 mM phosphate, 100 mM NaCl, pH 7.2, 37 degrees C, antibody 20 μM.

Regarding `O=CC(=O)c1ccccc1` [phenylglyoxal], in test [1] (reagent in fifty-fold molar excess, Compound 5b five-fold molar excess to protein), the “loss of catalytic activity in the presence of inhibitor Compound 5b” value turned out to be 35%. In addition, the “loss of catalytic activity” value in test [1] (setting [5]) amounted to 75%.

Regarding `Nc1ccc(CC(O)c2ccccc2C(=O)O)cc1` (stereo not shown) [Compound 5b], in test [2], the inhibition of catalysis entry was “completely inhibited”. In test [3] (competitive inhibitor, substrate Compound 3, read-out: K (competitive inhibition of the antibody-catalyzed hydrolysis of Compound 3)), the Ki worked out at 6 ± 2 µM.

For `CCOC(=O)OC(=O)OCC` [diethyl pyrocarbonate], the “esterolytic activity after treatment” value in test [1] (setting [5]) is on record as “unaffected”.

As for `O=C1C=CC(=O)O1` [maleic anhydride], in test [1] (setting [5]), the “esterolytic activity after treatment” value is given as “unaffected”.

As a reminder, the Km is the concentration of substrate that gives half-maximal velocity. Take `O=C(O)CCCC(=O)Nc1ccc(OC(=O)c2ccccc2)cc1` [Compound 3]: the “Kcat^app” value in test [3] (hydrolysis of Compound 3, 50 mM EPPS, 100 mM NaCl, pH 8.5, 37 degrees C) is 0.00017 ± 3.3e-05 s⁻¹; in test [4] (setting [6]) it was 5±0.2×10^-3 min^-1. Also, the Km in test [4] (setting [6]) came out at 1120 ± 50 µM. Besides, the “ratio of kcat/ko (rate acceleration by the antibody over hydrolysis in water)” value in test [4] (pH independent antibody-catalyzed rate vs hydrolysis of Compound 3 in water) was “over a million fold”.
